Experimental data reported in US9102622B2 (University of Connecticut, priority 2006, dated 2015).
pIC50, pKi: −log10 of the molar value. Read-outs that look alike come from different tables or passages of the source.

Target: fatty acid amide hydrolase (FAAH) (Rattus norvegicus (Rat), UniProt P97612)
Test: FAAH enzyme assay: inhibition of anandamide (AEA) hydrolysis, arachidonic acid quantified by HPLC
Format: biochemical
Conditions: for pIC50 / pKi: eight-point assay; for pIC50: anandamide hydrolysis by FAAH, read-out: IC50; for pKi: calculated with Prizm software, read-out: Ki; for inhibition at 0.1 µM: inhibitor 100 nM; for inhibition at 0.1 µM / inhibition at 100 µM: read-out: % Inhibition (Concentration)
Experimental: The resulting supernatant is injected onto the HPLC.

[1] = one-point assay, partially purified rat brain FAAH, 15 min
[2] = one-point assay, inhibitor 100 μM, partially purified rat brain FAAH, 15 min

Chain of fatty acid amide hydrolase (FAAH) (P97612 whole entry): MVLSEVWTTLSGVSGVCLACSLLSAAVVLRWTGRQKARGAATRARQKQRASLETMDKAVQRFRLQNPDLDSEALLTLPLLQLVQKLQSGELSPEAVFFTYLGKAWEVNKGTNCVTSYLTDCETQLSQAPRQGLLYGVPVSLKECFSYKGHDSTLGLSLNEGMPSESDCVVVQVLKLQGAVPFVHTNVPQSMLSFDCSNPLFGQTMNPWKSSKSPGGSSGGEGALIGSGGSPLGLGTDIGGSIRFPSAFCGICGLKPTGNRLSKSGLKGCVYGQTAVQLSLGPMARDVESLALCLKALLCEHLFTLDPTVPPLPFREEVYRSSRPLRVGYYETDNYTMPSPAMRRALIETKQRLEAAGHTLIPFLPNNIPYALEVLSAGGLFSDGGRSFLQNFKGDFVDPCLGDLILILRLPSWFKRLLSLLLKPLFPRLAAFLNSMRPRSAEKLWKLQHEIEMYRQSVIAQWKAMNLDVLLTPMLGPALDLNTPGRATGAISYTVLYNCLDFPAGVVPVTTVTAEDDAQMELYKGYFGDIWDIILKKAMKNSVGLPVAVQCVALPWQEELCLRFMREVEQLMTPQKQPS

`OC(O)(c1ccccn1)C(F)(F)CCCCOc1ccccc1` [Compound 89.9 Hydrate form] was tested, and the pIC50 was 7.41, the pKi was 7.92 and the inhibition at 0.1 µM [1] was 63%.
`O=C(CCCCCCOc1ccccc1)c1nnc(COCc2ccccc2)o1` [Compound 73.1, 7-(Phenoxy)-1-(5-benzyloxymethyl-1,3,4-oxadiazol-2-yl)-heptan-1-one] gave a pIC50 of 7.60, a pKi of 8.70 and an inhibition at 100 µM [2] of 94%.
For `O=S(=O)(F)CCCCCCCc1ccccc1` [Compound 4.2, 7-Phenyl-heptanesulfonyl fluoride, reference compound], the inhibition at 100 µM [2] was 31%.
With `O=C(CCCCCOc1cccc(OCc2ccccc2)c1)C(F)(F)F` [Compound 23.7, 1,1,1-Trifluoro-7-[3-(Benzyloxy)phenoxy]-2-heptanone] the pIC50 was 6.33, the pKi was 7.28 and the inhibition at 100 µM [2] was 96%.
In the case of `CCCCCCC(C)(C)c1cc(O)c(-c2ccc(C(=O)C(F)(F)F)cc2)c(O)c1` [Compound 40.1, 1-(2′,6′-dihydroxy-4′-(2-methyloctan-2-yl)biphenyl-4-yl)-2,2,2-trifluoroethanone], the inhibition at 100 µM [2] was 36%.
`O=C(CCCCCCOc1ccc(OCc2ccccc2)cc1)c1nnc(COCc2ccccc2)o1` [Compound 73.2, 7-(4-Benzyloxy-phenoxy)-1-(5-benzyloxymethyl-1,3,4-oxadiazol-2-yl)-heptan-1-one] gave a pIC50 of 7.68, a pKi of 8.70 and an inhibition at 100 µM of 93%.
With `O=C(Nc1ccc(Br)cc1)OC12CC3CC(CC(C3)C1)C2` [Compound 48.4] the inhibition at 100 µM [2] was 56%.
With `CCOC(=O)Nc1ccc(Br)cc1` [Compound 48.2] the pIC50 was 5.40, the pKi was 5.92 and the inhibition at 100 µM [2] was 84%.
For `O=C1c2ccccc2S(=O)(=O)N1Cc1ccccc1` [Compound 83.1, N-(Phenylmethyl)saccharin], the inhibition at 100 µM [2] was 42%.
`CCOC(=O)C(=O)c1ccc(-c2ccccc2)cc1` [Compound 91.1, Ethyl 2-(biphenyl-4-yl)-2-oxoacetate] showed a pIC50 of 4.82, a pKi of 5.34 and an inhibition at 100 µM [2] of 86%.
With `CCCCCCC(C)(C)c1cc(OCOCC)c(-c2ccc(NC(=O)OCc3ccccc3)cc2)c(OCOCC)c1` [Compound 52.3, 2′,6′-Bis(ethoxymethoxy)-4′-(1,1-dimethylheptyl)[1,1′-biphenyl]-4-yl carbamic acid benzyl ester] the inhibition at 100 µM [2] was 41%.
Work on `O=C(CCCOc1ccccc1O)C(F)(F)F` [Compound 24.8, 1,1,1-Trifluoro-5-[2-(hydroxy)phenoxy]-2-pentanone] yielded a pIC50 of 3.86, a pKi of 4.82 and an inhibition at 100 µM [2] of 43%.
`O=C1c2ccccc2S(=O)(=O)N1CCCCOc1ccc(O)cc1` [Compound 84, N-[4-(4-Hydroxy-phenoxy)-butyl]saccharin] gave a pIC50 of 5.04, a pKi of 6.05 and an inhibition at 100 µM [2] of 92%.
`O=C(Nc1ccc(Br)cc1)OCc1ccccc1` [Compound 48.3, (4-Bromophenyl)carbamic acid benzyl ester] gave an inhibition at 100 µM [2] of 36%.
`Cc1nnc(C(=O)CCCCCCOc2ccc(O)cc2)o1` [Compound 66, 7-(4-Hydroxy-phenoxy)-1-(5-methyl-1,3,4-oxadiazol-2-yl)-heptan-1-one] was tested, and the pIC50 was 7.00, the pKi was 8.22 and the inhibition at 100 µM was 97%.
For `CCCCCCC(C)(C)c1cc(O)c(-c2ccc(NC(=O)OCC)cc2)c(O)c1` [Compound 53.2, 2′,6′-Dihydroxy-4′-(1,1-dimethylheptyl)[1,1′-biphenyl]-4-yl carbamic acid ethyl ester], the inhibition at 100 µM [2] was 15%.
`O=C(CCCCCCOc1ccccc1)C(F)(F)c1ccccn1` [Compound 96.1, 1,1-Difluoro-8-phenoxy-1-(pyridin-2-yl)octan-2-one] was tested, and the inhibition at 100 µM [2] was 86%.
In the case of `O=S(=O)(F)CCCCCCCc1cccc(OCc2ccccc2)c1` [Compound 13.2, 7-(3-Benzyloxy-phenyl)-heptanesulfonyl fluoride], the inhibition at 100 µM [2] was 97%.
`CC(=O)C(F)(F)CCCCOc1cccc(OCc2ccccc2)c1` [Compound 89.1] showed a pIC50 of 6.57, a pKi of 7.10 and an inhibition at 0.1 µM [1] of 79%.
`O=C(CCCCOc1ccccc1OCc1ccccc1)C(F)(F)F` [Compound 23.9, 1,1,1-Trifluoro-6-[2-(Benzyloxy)phenoxy]-2-hexanone] showed a pIC50 of 6.18, a pKi of 7.34 and an inhibition at 100 µM [2] of 97%.
`O=S(=O)(Cl)CCCCCCCc1cccc(OCc2ccccc2)c1` [Compound 12.2, 7-(3-Benzyloxy-phenyl)-heptanesulfonyl chloride] was tested, and the pIC50 was 4.92, the pKi was 5.54 and the inhibition at 100 µM [2] was 97%.
`O=C(c1ccc(-c2ccccc2)cc1)C(F)(F)c1ccccn1` [Compound 96.2, 1 (Biphenyl-4-yl)-2,2-difluoro-2-(pyridin-2-yl)ethanone] was tested, and the inhibition at 100 µM [2] was 61%.
Work on `O=S(=O)(F)CCCCCCCc1ccccc1O` [Compound 14.3, 7-(2-Hydroxy-phenyl)-heptanesulfonyl fluoride] yielded a pIC50 of 7.27, a pKi of 7.89 and an inhibition at 100 µM [2] of 100%.
Work on `O=C(CCCc1ccccc1)C(F)(F)F` [Compound 27.1, 1,1,1-Trifluoro-5-phenyl-2-pentanone] yielded a pIC50 of 4.16, a pKi of 5.34 and an inhibition at 100 µM [2] of 46%.
In the case of `CCCCCc1cc(OC)c(-c2ccc(C(=O)C(F)(F)F)cc2)c(OC)c1` [Compound 39.2, 1-(2′,6′-Dimethoxy-4′-pentylbiphenyl-4-yl)-2,2,2-trifluoroethanone], the inhibition at 100 µM [2] was 57%.
For `O=C(CCCOc1ccccc1)C(F)(F)F` [Compound 23.11, 1,1,1-Trifluoro-5-phenoxy-2-pentanone], the pIC50 was 4.95, the pKi was 5.92 and the inhibition at 100 µM [2] was 79%.
`O=S(=O)(F)CCCCCCCc1cccc(O)c1` [Compound 14.2, 7-(3-Hydroxy-phenyl)-heptanesulfonyl fluoride] showed a pIC50 of 6.95, a pKi of 7.59 and an inhibition at 100 µM [2] of 99%.
`CCCCCCC(C)(C)c1cc(O)c(-c2ccc(NC(=O)OC3CCCCC3)cc2)c(O)c1` [Compound 53.1, 2′,6′-Dihydroxy-4′-(2-methyloctan-2-yl)biphenyl-4-yl carbamic acid cyclohexyl ester] was tested, and the inhibition at 100 µM [2] was 23%.
In the case of `Cc1nnc(C(=O)CCCCCCOc2ccc(OCc3ccccc3)cc2)o1` [Compound 65.2, 7-(4-Benzyloxy-phenoxy)-1-(5-methyl-1,3,4-oxadiazol-2-yl)-heptan-1-one], the pIC50 was 6.92, the pKi was 8.10 and the inhibition at 100 µM [2] was 96%.
`O=C1c2ccccc2S(=O)(=O)N1CCCCOc1ccc(OCc2ccccc2)cc1` [Compound 83.3, N-[4-(4-Benzyloxy-phenoxy)-butyl]saccharin] showed a pIC50 of 4.96 and an inhibition at 100 µM [2] of 87%.
For `O=C(c1cccc(-c2cccc(OCc3ccccc3)c2)c1)C(F)(F)F` [Compound 30], the inhibition at 100 µM [2] was 33%.
In the case of `CC(=O)C(F)(F)CCCCCOc1ccccc1` [Compound 89.4, 3,3-difluoro-8-phenoxy-2-octanone], the pIC50 was 6.64, the pKi was 7.15 and the inhibition at 100 µM [2] was 87%.
Compound `CCOC(=O)C(=O)CCCCCOc1ccccc1` [Compound 87.4, 2-Oxo-7-phenoxy-heptanoic acid ethyl ester] has a pIC50 of 6.54, a pKi of 7.05 and an inhibition at 100 µM [2] of 100%.
Compound `COc1cccc(C(=O)c2nnc(C)o2)c1` [Compound 81, 1-(3-Methoxy-phenyl)-1-(5-methyl-1,3,4-oxadiazol-2-yl)-ketone] has an inhibition at 100 µM [2] of 24%.
With `O=S(=O)(Cl)CCCCCCCc1ccccc1OCc1ccccc1` [Compound 12.3, 7-(2-Benzyloxy-phenyl)-heptanesulfonyl chloride] the pIC50 was 5.76, the pKi was 6.39 and the inhibition at 100 µM [2] was 97%.
Work on `Cc1nnc(C(=O)C(F)(F)CCCCOc2cccc(OCc3ccccc3)c2)o1` [Compound 89.13] yielded a pIC50 of 7.42.
`CCOC(=O)C(=O)c1ccc(Br)cc1` [Compound 91.5, Ethyl 2-(4-bromophenyl)-2-oxoacetate] gave an inhibition at 100 µM [2] of 79%.
`O=C(CCCCOc1cccc(O)c1)C(F)(F)F` [Compound 24.6, 1,1,1-Trifluoro-6-[3-(hydroxy)phenoxy]-2-hexanone] gave a pIC50 of 4.53, a pKi of 5.68 and an inhibition at 100 µM [2] of 85%.
`O=C(CCCCCCOc1ccccc1)c1nnc(CO)o1` [Compound 74.1, 1-(5-hydroxymethyl-1,3,4-oxadiazol-2-yl)-7-phenoxy-heptan-1-one] gave a pIC50 of 7.82, a pKi of 9.00 and an inhibition at 100 µM [2] of 96%.
In the case of `O=C(CCCCCc1ccccc1)C(F)(F)F` [Compound 27.3, 1,1,1-Trifluoro-7-phenyl-2-heptanone, reference compound], the pIC50 was 4.95, the pKi was 5.91 and the inhibition at 100 µM [2] was 83%.
Compound `O=C1c2ccccc2S(=O)(=O)N1CCCCOc1ccccc1` [Compound 83.2, N-(4-Phenoxy-butyl)saccharin] has a pIC50 of 4.94 and an inhibition at 100 µM [2] of 91%.
Work on `Cc1nnc(C(=O)C(F)(F)c2ccc(-c3ccccc3)cc2)o1` [Compound 93.1, 2-(Biphenyl-4-yl)-2,2-difluoro-1-(5-methyl-1,3,4-oxadiazol-2-yl)ethanone] yielded a pIC50 of 6.68, a pKi of 7.19 and an inhibition at 0.1 µM [1] of 41%.
`O=C(CCCOc1cccc(OCc2ccccc2)c1)C(F)(F)F` [Compound 23.5, 1,1,1-Trifluoro-5-[3-(Benzyloxy)phenoxy]-2-pentanone] showed a pIC50 of 5.16, a pKi of 6.11 and an inhibition at 100 µM [2] of 93%.
With `Cc1nnc(C(=O)C(F)(F)CCCCOc2ccccc2)o1` [Compound 89.12] the pIC50 was 6.51, the pKi was 7.00 and the inhibition at 0.1 µM [1] was 20%.
Work on `O=C(CCCCCOc1ccc(O)cc1)C(F)(F)F` [Compound 24.3, 1,1,1-Trifluoro-7-[4-(hydroxy)phenoxy]-2-heptanone] yielded a pIC50 of 4.94, a pKi of 6.10 and an inhibition at 100 µM [2] of 86%.
Work on `CC(=O)C(F)(F)CCCCOc1ccccc1` [Compound 89.2] yielded an inhibition at 100 µM [2] of 98%.
`O=C(CCCCCOc1ccccc1O)C(F)(F)F` [Compound 24.10, 1,1,1-Trifluoro-7-[2-(hydroxy)phenoxy]-2-heptanone] showed a pIC50 of 4.58, a pKi of 5.74 and an inhibition at 100 µM [2] of 82%.
`O=S(=O)(Cl)CCCCCc1ccc(OCc2ccccc2)cc1` [Compound 12.4, 5-(4-Benzyloxy-phenyl)-pentanesulfonyl chloride] was tested, and the inhibition at 100 µM [2] was 95%.
